One data set deals with Shigella boydii DSM 7532. The settings on record: Mueller-Hinton II broth + 0.02% BSA, 18-20 hours at 37° C. As for the experimental part: […] colony forming units (CFU)/mL. Aliquots (50 μl) of inoculate were added to 50 μl of MH broth+0.02% BSA containing the peptide in serial two-fold dilutions. The following microorganisms were used to determine antibiotic selectivity of the peptides: Bacillus subtilis DSM 10 and Shigella boydii DSM 7532.

In data set [1] the test system is human red blood cells (hRBC). The format is cell-based. The settings on record: red cells of human, 1 h. As for the experimental part: The peptides were tested for their hemolytic activity against human red blood cells (hRBC). Fresh hRBC were washed three times with phosphate buffered saline (PBS) and centrifuged for 10 min at 2000×g. Compounds (100 μg/mL) were incubated with 20% hRBC (v/v) for 1 h at 37° C. and shaking at 300 rpm. The final erythrocyte concentration was approximately 0.9×10^9 cells/mL. A value of 0% and 100% cell lyses, respectively, was determined by incubation of hRBC in the presence of PBS containing 0.001% acetic acid and 2.5% Triton X-100 in H2O, respectively. The samples were centrifuged, the supernatants were 8-fold diluted in PBS buffer and the optical densities (OD) were measured at 540 nm. The 100% lyses value (OD540H2O) gave an OD50 of approximately 0.5-1.0.
Percent hemolysis was calculated as follows: (OD540peptide/OD540H2O)×100%.

The nature of the next data set: in vitro. It is filed as cell-based. The method, then: The cytotoxicity of the peptides to HELA cells (Acc57) and COS-7 cells (CRL-1651) was determined using the MTT reduction assay (T. Mossman, J. Immunol. Meth. 1983, 65, 55-63; M. V. Berridge, A. S. Tan, Arch. Biochem. Biophys. 1993, 303, 474-482). Briefly, the method was as follows: 4000 HELA cells/well and 3400 COS-7 cells/well were seeded and grown in 96-well microtiter plates for 24 h at 37° C. at 5% CO2. Thereafter, time zero (Tz) was determined by MTT reduction (see below). The supernatant of the remaining wells was discarded, and fresh medium and compounds in serial dilutions (12.5, 25 and 50 μg/mL, triplicates) were pipetted into the wells. After incubation of the cells for 48 h at 37° C. at 5% CO2 the supernatant was discarded again and 100 μL MTT reagent (0.5 mg/mL in RPMI1640 and DMEM, respectively)/well was added. Following incubation at 37° C. for 2-4 h the media were aspirated and the cells were spiked (100 μL isopropanol/well). The absorbance of the solubilized formazan was measured at 595 nm (OD595peptide). For each concentration averages were calculated from triplicates. The percentage of growth was calculated as follows: (OD595peptide-OD595Tz-OD595Empty well)/(OD595Tz-OD595Empty well)×100%. The GI50 (Growth Inhibition) concentrations were calculated for each peptide by using a trend line function for the concentrations (50, 25, 12.5 and 0 μg/mL), the corresponding percentages and the value 50, (=TREND (C50:C0%50:%0,50).

Values after ≈ are worked out from the molar mass of the structure shown. Peptide text beside a SMILES is read from it.

In general, GI50 refers to the concentration giving 50% growth inhibition.

Turning to `CC[C@H](C)[C@@H]1NC(=O)[C@H](CCCNC(=N)N)NC(=O)[C@H](Cc2c[nH]c3ccccc23)NC(=O)[C@@H]2CCCN2C(=O)[C@H]2CCCN2C(=O)[C@H](C)NC(=O)[C@H](CCC(N)=O)NC(=O)[C@H](CC(C)C)NC(=O)[C@H](CCCNC(=N)N)NC(=O)[C@H](CCC(N)=O)NC(=O)[C@H](CC(N)=O)NC(=O)[C@@H](CCCNC(=N)N)NC(=O)[C@H]([C@@H](C)CC)NC(=O)[C@H](CCN)NC1=O` [Example 7] (HELM PEPTIDE1{W.R.I.[Dab].I.[dR].N.Q.R.L.Q.A.[dP].P}$PEPTIDE1,PEPTIDE1,1:R1-14:R2$$$V2.0), the “Shigella boydii DSM 7532 MIC” value in the data set with Shigella boydii DSM 7532 is above 16 µg/mL. The “Hemolysis at 100 μg/mL” value in data set [1] is reported as 0.0%. Also, the GI50 at 48 h in the data set “in vitro” (African green monkey) and in the data set “in vitro” (human) was above 50 µg/mL throughout.

Turning to `CC[C@H](C)[C@@H]1NC(=O)[C@H](CCCNC(=N)N)NC(=O)[C@H](Cc2c[nH]c3ccccc23)NC(=O)[C@@H]2CCCN2C(=O)[C@H]2CCCN2C(=O)[C@H](CCCNC(=N)N)NC(=O)[C@H](CCCNC(=N)N)NC(=O)[C@H](CC(C)C)NC(=O)[C@H](CCN)NC(=O)[C@H](CCCCN)NC(=O)[C@H](CC(N)=O)NC(=O)[C@@H](CCCNC(=N)N)NC(=O)[C@H]([C@@H](C)CC)NC(=O)[C@H](CCCNC(=N)N)NC1=O` [Example 1] (HELM PEPTIDE1{W.R.I.R.I.[dR].N.K.[Dab].L.R.R.[dP].P}$PEPTIDE1,PEPTIDE1,1:R1-14:R2$$$V2.0), the “Shigella boydii DSM 7532 MIC” value with Shigella boydii DSM 7532 was found to be 8 µg/mL. For the same compound, the “Hemolysis at 100 μg/mL” value in data set [1] is 0.0%. Besides, the GI50 at 48 h in “in vitro” (African green monkey) and in the data set “in vitro” (human) was above 50 µg/mL throughout.

Take `CC[C@H](C)[C@@H]1NC(=O)[C@H](CCN)NC(=O)[C@H](Cc2c[nH]c3ccccc23)NC(=O)[C@@H]2CCCN2C(=O)[C@H]2CCCN2C(=O)[C@H](C)NC(=O)[C@H](CCC(N)=O)NC(=O)[C@H](CC(C)C)NC(=O)[C@H](CCCNC(=N)N)NC(=O)[C@H](CCC(N)=O)NC(=O)[C@H](CC(N)=O)NC(=O)[C@@H](CCCNC(=N)N)NC(=O)[C@H]([C@@H](C)CC)NC(=O)[C@H](CCCNC(=N)N)NC1=O` [Example 5] (HELM PEPTIDE1{W.[Dab].I.R.I.[dR].N.Q.R.L.Q.A.[dP].P}$PEPTIDE1,PEPTIDE1,1:R1-14:R2$$$V2.0): the “Shigella boydii DSM 7532 MIC” value in the data set with Shigella boydii DSM 7532 was determined as 16 µg/mL. Further, the “Hemolysis at 100 μg/mL” value in data set [1] amounted to 0.0%. Moreover, the concentration for 50% growth inhibition (GI50) at 48 h in “in vitro” (African green monkey) and in “in vitro” (human) was above 50 µg/mL throughout.

On to `CC[C@H](C)[C@@H]1NC(=O)[C@H](CCCNC(=N)N)NC(=O)[C@H](Cc2c[nH]c3ccccc23)NC(=O)[C@@H]2CCCN2C(=O)[C@H]2CCCN2C(=O)[C@H](C)NC(=O)[C@H](CCC(N)=O)NC(=O)[C@H](CC2CCCCC2)NC(=O)[C@H](CCCNC(=N)N)NC(=O)[C@H](CCC(N)=O)NC(=O)[C@H](CC(N)=O)NC(=O)[C@@H](CCCNC(=N)N)NC(=O)[C@H]([C@@H](C)CC)NC(=O)[C@H](CCCNC(=N)N)NC1=O` [Example 4] (HELM PEPTIDE1{W.R.I.R.I.[dR].N.Q.R.[Cha].Q.A.[dP].P}$PEPTIDE1,PEPTIDE1,1:R1-14:R2$$$V2.0), for which the “Shigella boydii DSM 7532 MIC” value with Shigella boydii DSM 7532 was above 16 µg/mL. The “Hemolysis at 100 μg/mL” value in data set [1] is reported as 0.8%. The concentration for 50% growth inhibition (GI50) at 48 h in the data set “in vitro” (African green monkey) and in “in vitro” (human) was above 50 µg/mL throughout.

For the compound `CC[C@H](C)[C@@H]1NC(=O)[C@H](CCCNC(=N)N)NC(=O)[C@H](Cc2c[nH]c3ccccc23)NC(=O)[C@@H]2CCCN2C(=O)[C@H]2CCCN2C(=O)[C@H](C)NC(=O)[C@H](CCC(N)=O)NC(=O)[C@H](Cc2ccc(O)cc2)NC(=O)[C@H](CCCNC(=N)N)NC(=O)[C@H](CCC(N)=O)NC(=O)[C@H](CC(N)=O)NC(=O)[C@@H](CCCNC(=N)N)NC(=O)[C@H]([C@@H](C)CC)NC(=O)[C@H](CCCNC(=N)N)NC1=O` [Example 15] (HELM PEPTIDE1{W.R.I.R.I.[dR].N.Q.R.Y.Q.A.[dP].P}$PEPTIDE1,PEPTIDE1,1:R1-14:R2$$$V2.0), the “Shigella boydii DSM 7532 MIC” value with Shigella boydii DSM 7532 came to 16 µg/mL. In addition, the “Hemolysis at 100 μg/mL” value in data set [1] was determined as 0.0%. The GI50 at 48 h in “in vitro” (African green monkey) and in “in vitro” (human) was above 50 µg/mL throughout.

As for `CC[C@H](C)[C@@H]1NC(=O)[C@H](CCCNC(=N)N)NC(=O)[C@H](Cc2c[nH]c3ccccc23)NC(=O)[C@@H]2CCCN2C(=O)[C@H]2CCCN2C(=O)[C@H](CCC(N)=O)NC(=O)[C@H](CCCNC(=N)N)NC(=O)[C@H](CC(C)C)NC(=O)[C@H](CCCNC(=N)N)NC(=O)[C@H](CCCCN)NC(=O)[C@H](CC(N)=O)NC(=O)[C@@H](CCCNC(=N)N)NC(=O)[C@H]([C@@H](C)CC)NC(=O)[C@H](CCCNC(=N)N)NC1=O` [Example 2] (HELM PEPTIDE1{W.R.I.R.I.[dR].N.K.R.L.R.Q.[dP].P}$PEPTIDE1,PEPTIDE1,1:R1-14:R2$$$V2.0), the “Shigella boydii DSM 7532 MIC” value in the data set on Shigella boydii DSM 7532 was 4 µg/mL. In data set [1], the “Hemolysis at 100 μg/mL” value was found to be 0.0%. Moreover, the concentration for 50% growth inhibition (GI50) at 48 h in “in vitro” (African green monkey) and in “in vitro” (human) was above 50 µg/mL in each case.

Consider `CC[C@H](C)[C@@H]1NC(=O)[C@H](CCCNC(=N)N)NC(=O)[C@H](Cc2c[nH]c3ccccc23)NC(=O)[C@@H]2CCCN2C(=O)[C@H]2CCCN2C(=O)[C@H](C)NC(=O)[C@H](CCC(N)=O)NC(=O)[C@H](Cc2c[nH]c3ccccc23)NC(=O)[C@H](CCCNC(=N)N)NC(=O)[C@H](CCC(N)=O)NC(=O)[C@H](CC(N)=O)NC(=O)[C@@H](CCCNC(=N)N)NC(=O)[C@H]([C@@H](C)CC)NC(=O)[C@H](CCCNC(=N)N)NC1=O` [Example 16] (HELM PEPTIDE1{W.R.I.R.I.[dR].N.Q.R.W.Q.A.[dP].P}$PEPTIDE1,PEPTIDE1,1:R1-14:R2$$$V2.0), for which, in the data set with Shigella boydii DSM 7532, the “Shigella boydii DSM 7532 MIC” value was 16 µg/mL. For the same compound, in data set [1], the “Hemolysis at 100 μg/mL” value turned out to be 0.5%. Also, the GI50 at 48 h in “in vitro” (African green monkey) and in the data set “in vitro” (human) was above 50 µg/mL each time.

As to `CC[C@H](C)[C@@H]1NC(=O)[C@H](CCCNC(=N)N)NC(=O)[C@H](Cc2c[nH]c3ccccc23)NC(=O)[C@@H]2CCCN2C(=O)[C@H]2CCCN2C(=O)[C@H](CCCNC(=N)N)NC(=O)[C@H](CCCNC(=N)N)NC(=O)[C@H](CC(N)=O)NC(=O)[C@H](CCCNC(=N)N)NC(=O)[C@H](Cc2c[nH]cn2)NC(=O)[C@H](CC(N)=O)NC(=O)[C@@H](CCCNC(=N)N)NC(=O)[C@H]([C@@H](C)CC)NC(=O)[C@H](CCCNC(=N)N)NC1=O` [Example 18] (HELM PEPTIDE1{W.R.I.R.I.[dR].N.H.R.N.R.R.[dP].P}$PEPTIDE1,PEPTIDE1,1:R1-14:R2$$$V2.0), the “Shigella boydii DSM 7532 MIC” value with Shigella boydii DSM 7532 was determined as 4 µg/mL. Moreover, in data set [1], the “Hemolysis at 100 μg/mL” value turned out to be 0.3%. Moreover, the 50% growth inhibitory concentration (GI50) at 48 h in the data set “in vitro” (African green monkey) is above 50 µg/mL; in the data set “in vitro” (human) it was 39 µg/mL (≈ 20.4 µM).

Turning to `CC[C@H](C)[C@@H]1NC(=O)[C@H](CCCNC(=N)N)NC(=O)[C@H]([C@@H](C)CC)NC(=O)[C@H](CCCNC(=N)N)NC(=O)[C@H](Cc2c[nH]c3ccccc23)NC(=O)[C@@H]2CCCN2C(=O)[C@H]2CCCN2C(=O)[C@H](C)NC(=O)[C@H](CCC(N)=O)NC(=O)[C@H](CC(C)C)NC(=O)[C@H](CCCNC(=N)N)NC(=O)[C@H](CCC(N)=O)NC(=O)[C@H](CC(N)=O)NC(=O)[C@H](CCN)NC1=O` [Example 10] (HELM PEPTIDE1{W.R.I.R.I.[Dab].N.Q.R.L.Q.A.[dP].P}$PEPTIDE1,PEPTIDE1,1:R1-14:R2$$$V2.0), the “Shigella boydii DSM 7532 MIC” value in the data set on Shigella boydii DSM 7532 was above 16 µg/mL. For the same compound, in data set [1], the “Hemolysis at 100 μg/mL” value is reported as 0.4%. Further, the GI50 at 48 h in “in vitro” (African green monkey) and in “in vitro” (human) was above 50 µg/mL in each case.

Take `CC[C@H](C)[C@@H]1NC(=O)[C@H](CCCNC(=N)N)NC(=O)[C@H](Cc2c[nH]c3ccccc23)NC(=O)[C@@H]2CCCN2C(=O)[C@H]2CCCN2C(=O)[C@H](C)NC(=O)[C@H](CCC(N)=O)NC(=O)[C@H](CC(C)C)NC(=O)[C@H](CCCNC(=N)N)NC(=O)[C@H](CCC(N)=O)NC(=O)[C@H](CCC(N)=O)NC(=O)[C@@H](CCCNC(=N)N)NC(=O)[C@H]([C@@H](C)CC)NC(=O)[C@H](CCCNC(=N)N)NC1=O` [Example 11] (HELM PEPTIDE1{W.R.I.R.I.[dR].Q.Q.R.L.Q.A.[dP].P}$PEPTIDE1,PEPTIDE1,1:R1-14:R2$$$V2.0): in the data set on Shigella boydii DSM 7532, the “Shigella boydii DSM 7532 MIC” value is above 16 µg/mL. Besides, the “Hemolysis at 100 μg/mL” value in data set [1] is on record as 0.0%. The GI50 at 48 h in the data set “in vitro” (African green monkey) and in the data set “in vitro” (human) was above 50 µg/mL in each case.

The record behind these values is patent publication US8895499B2, “β-hairpin peptidomimetics” (Polyphor AG, priority 2010, dated 2014).
